Measurements published in patent publication US7968596B2, “Preparation and diabetic use of Gibberellins” (Australian Biomedical Company Pty, Ltd., priority 2001, dated 2011).

Legend:
[1] = system: skin and eyes; conditions: in vivo; cited from earlier work
[2] = system: Human skin cell culture; assay: Effect of Gibberellin A3 on cell growth compared to EGF in vitro (human skin cell culture, keratinocytes media); assay type: cell-based; conditions: for Results: cell growth / cell division rate: five days
Protocol: Human skin cell culture experiments were conducted by using keratinocytes media. Each well was seeded with 1,500 cells. Incubation was carried out at 37° C. for a period of five days.

[3] = system: mice; conditions: cited from earlier work
[4] = system: rats; conditions: cited from earlier work
[5] = system: Diabetic Rats; assay: Effect on streptozotocin-induced diabetic rats (blood glucose, body weight); assay type: in vivo, Male Wistar rats; conditions: for Blood glucose level after day 20th, 2 hours: 2 hours after administration; for Blood glucose level after day 20th, 5 hours: 5 hours after administration
Protocol: Male Wistar rats (290 g˜330 g) were weighed and lightly anaesthetized (4% halothane, 2:1 O2/N2O) so that blood glucose levels could be measured via a tail vein sample, using a Precision Q.I.D. glucometer. Diabetes was then induced by a single tail vein injection of streptozotocin (STZ, 60 mg/kg), which was dissolved immediately prior to use in citrate buffer (50 mM citric acid and 50 mM trisodium citrate; pH 4.5). An equivalent volume of citrate buffer was injected into age-matched control rats.
Rats were housed in groups of two during the experiment. Animal house temperature was maintained at 20° C. (±2° C.) with a 12 hour light/dark cycle, and rats were allowed free access to food and water.
Forty-eight hours after the administration of STZ (60 mg/kg), a blood glucose sample was taken and animals with blood glucose levels≧16 mM were considered to be diabetic. Rats were then randomly divided into groups. The slow-acting, Lente Monotard insulin was used and Gibberellin sodium salt was made up as required in distilled water immediately prior to use. Blood glucose readings were obtained two hours or 5 hours after the administration of drug(s) every three days.

[6] = Keratinocyte medium containing no EGF, but containing Gibberellin A3 (5 μg/ml)
[7] = Perfect keratinocyte medium (containing EGF) plus Gibberellin A3 (5 μg/ml)
[8] = Group 1: Insulin 4 unit/rat sub-cutaneous daily
[9] = Group 2: Insulin 2 unit/rat sub-cutaneous daily

## C=C1C[C@]23C[C@@]1(O)CC[C@H]2[C@@]12C=C[C@H](O)[C@@](C)(C(=O)O1)[C@H]2[C@@H]3C(=O)O [Gibberellin A3]
[1]
  irritation to skin and eyes: non-irritating
[2]; Experiment 3.2, EGF plus Gibberellin A3 5 μg/ml
  effect of presence of both EGF and Gibberellin A3 on the rate of cell growth: no additive effect
[2]; Experiment 3.4, no EGF, Gibberellin A3 5 μg/ml
  stimulation of cell growth by Gibberellin A3 alone, compared to EGF: as effectively as EGF
[2]; [6]
  Results: cell growth: Very good growth (cell
  cell division rate: division rate = 100)
[2]; [7]
  Results: cell growth: Very good growth (cell
  cell division rate: division rate = 100)
[3]
  acute oral LD50: > 15000 mg/kg
[4]
  acute oral LD50: 6300 mg/kg

## Insulin: slow-acting, Lente Monotard insulin
[5]; [8]
  Body weight change on the 30th day: +8%
  Blood glucose level after day 20th, 5 hours: 3~5 mM
[5]; Group 1: Insulin 4 unit/rat sub-cutaneous daily, STZ diabetic rats
  Blood glucose level after day 20th, 2 hours: 4~5 mM
[5]; [9]
  Body weight change on the 30th day: −8%
  Blood glucose level after day 20th, 2 hours: 15~18 mM
  Blood glucose level after day 20th, 5 hours: 14~16 mM
